Assay results from US8735387B2, “Oxazolopyrimidines as Edg-1 receptor agonists” (Sanofi, priority 2008, dated 2014).

Target: T1, human Edg-1 receptor (Homo sapiens, UniProt P21453)
T1 construct: expressed in transfected cells; membrane preparation
Experiment: GTP-γ-S assay using human Edg-1 receptors (scintillation proximity assay, membrane preparation from CHO Flp-In cell line)
Type: biochemical
Conditions: example compound at 10 μM; relative to 10 μM S1P; GTP-γ-S SPA, human Edg-1 membranes
How it was run: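 Membranes came from Flp-In CHO cells constitutively expressing human Edg-1 carrying an N-terminal FLAG tag. Compound-induced receptor activation was read as GTP-γ-S binding in a scintillation proximity format.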

T1 sequence (P21453 whole entry): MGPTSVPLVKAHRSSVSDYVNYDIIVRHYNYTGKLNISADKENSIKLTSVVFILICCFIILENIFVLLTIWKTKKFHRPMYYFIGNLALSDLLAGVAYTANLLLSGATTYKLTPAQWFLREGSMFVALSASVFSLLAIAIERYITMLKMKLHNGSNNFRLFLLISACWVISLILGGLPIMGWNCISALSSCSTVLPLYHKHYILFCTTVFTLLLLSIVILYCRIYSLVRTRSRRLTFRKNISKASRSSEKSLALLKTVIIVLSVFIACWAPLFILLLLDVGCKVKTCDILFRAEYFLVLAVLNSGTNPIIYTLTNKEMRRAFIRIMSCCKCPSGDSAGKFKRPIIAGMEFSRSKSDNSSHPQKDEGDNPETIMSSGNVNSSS

% Activation (Edg-1 receptor activation in percent of the activation by 10 μM S1P) [%]	SMILES
122	CCCOc1nc(CN2CCCOCC2)nc2oc(-c3ccccc3)nc12 [Example 43]
90	CCCOc1nc(CN2CCCOCC2)nc2oc(-c3cccc(F)c3)nc12 [Example 34]
70	CCCOc1nc(Cc2ccc(Cl)cc2)nc2oc(-c3cc(C)c(OCC(=O)CC)c(C)c3)nc12 [Example 316]
96	CCOc1nc(Cc2ccc(Cl)cc2)nc2oc(-c3cc(C)c(OCC(=O)NCCC(=O)O)c(C)c3)nc12 [Example 314]
113	CCCOc1nc(CN2CCCC(F)C2)nc2oc(-c3cccc(F)c3)nc12 (stereo not drawn) [Example 69]
104	CCOc1nc(Cc2ccc(Cl)cc2)nc2oc(-c3cc(C)c(OCC(=O)NCCN(C)C)c(C)c3)nc12 [Example 249]
84	CCOc1nc(Cc2ccc(Cl)cc2)nc2oc(-c3cc(C)c(OCC(O)CNCC(c4cccnc4)N(C)C)c(C)c3)nc12 (stereo not drawn) [Example 221]
102	CCCOc1nc(CN2CCCC(C(F)(F)F)C2)nc2oc(-c3cccc(F)c3)nc12 (stereo not drawn) [Example 304]
105	CCCOc1nc(CN2CCCC2(F)F)nc2oc(-c3cccc(F)c3)nc12 [Example 95]
96	CCCOc1nc(CN2CCCOCC2)nc2oc(-c3ccc(Cl)c(F)c3)nc12 [Example 91]
42	CCCOc1nc(Cc2ccc(Cl)cc2)nc2oc(-c3ccc(OC)c(Cl)c3)nc12 [Example 218]
117	CCCOc1nc(CN2CCCOCC2)nc2oc(-c3ccc(Br)o3)nc12 [Example 99]
132	CCOc1nc(Cc2ccc(Cl)cc2)nc2oc(-c3cc(C)c(OCC(O)CNC4CCC(C)CC4)c(C)c3)nc12 (stereo not drawn) [Example 265]
59	FCCCOc1nc(CN2CCOCC2)nc2oc(-c3cccc(F)c3)nc12 [Example 31]
44	CCCOc1nc(Cn2cnc(C(=O)OC)c2)nc2oc(-c3cccc(F)c3)nc12 [Example 56]
105	FCCCOc1nc(Cc2ccc(Cl)cc2)nc2oc(-c3cccnc3)nc12 [Example 126]
52	CCCOc1nc(Cc2ccc(Cl)cc2)nc2oc(-c3cc(C(F)(F)F)cc(C(F)(F)F)c3)nc12 [Example 138]
106	CCCOc1nc(Cc2ccc(Cl)cc2)nc2oc(-c3cc(C)c(OCC(O)CNC(C)=O)c(C)c3)nc12 (stereo not drawn) [Example 214]
78	CCCOc1nc(Cc2ccc(Cl)cc2)nc2oc(-c3cc(C)c(OCC(O)CNC(=O)CO)c(C)c3)nc12 (stereo not drawn) [Example 212]
86	CCOc1nc(Cc2ccc(Cl)cc2)nc2oc(-c3cc(C)c(OCCC[S+]([O-])c4ncn[nH]4)c(C)c3)nc12 (stereo not drawn) [Example 292]
54	CCOc1nc(Cc2ccc(Cl)cc2)nc2oc(-c3cc(C)c(OCCCSc4nnc(C5CC5)[nH]4)c(C)c3)nc12 [Example 276]
71	CCCOc1nc(Cc2ccc(Cl)cc2)nc2oc(-c3ccc(F)c(F)c3)nc12 [Example 132]

Same assay, conditions: example compound at 10 μM; relative to 10 μM S1P; GTP-γ-S SPA, human Edg-1 membranes; read-out: % Activation (Edg-1 receptor activation in percent of the activation by 10 μM S1P)

activation at 10 µM [%]	SMILES
299	CCCOc1nc(Cc2ccc(Cl)cc2)nc2oc(-c3cc(C)c(OCC(O)CN)c(C)c3)nc12 (stereo not drawn) [Example 20, 1-Amino-3-{4-[5-(4-chloro-benzyl)-7-propoxy-oxazolo[5,4-d]pyrimidin-2-yl]-2,6-dimethyl-phenoxy}-propan-2-ol]
80	CCCOc1nc(CN2CCOCC2)nc2oc(-c3ccco3)nc12 [Example 2, 2-Furan-2-yl-5-morpholin-4-ylmethyl-7-propoxy-oxazolo[5,4-d]pyrimidine]
